Source: patent US12391674B2, “Heterocyclic compounds for the treatment of epilepsy” (OTSUKA PHARMACEUTICAL CO., LTD., priority 2018, dated 2025)
Where two headings read alike, the source gives them in different places.

Test system: DBA/2 mice
Assay: Audiogenic seizure model
Type: in vivo
Conditions: Mus musculus, read-out: Seizure suppression
Experimental: The animal model used in this test is a phenotype model for partial seizure (including secondary generalized seizure) and generalized tonic-clonic seizure, and has high clinical predictability. This test was performed in accordance with the report of De Sarro et al (Br J Pharmacol. 1988 February; 93 (2): 247-56. Anticonvulsant effects of some calcium entry blockers in DBA/2 mice. De Sarro G B, Meldrum B S, Nistico G.).
In this test example, the example compounds shown in Tables 3-1 to 3-3 below were used as test compounds.
The test compounds were suspended in 5% gum arabic/distilled water (w/v), and administered by forced oral administration to male and female DBA/2 mice (Japan SLC, Inc., 3 weeks old, 8 per group) at a dose of 30 mg/kg. After one hour of the oral administration of the test compound, each mouse was placed in a transparent acrylic cylinder 30 cm high and 23 cm in diameter, and 30 seconds were allowed for habituation. Then, they were exposed to auditory stimulation (12.6 kHz, 100-110 dB) for 1 minute or until a tonic seizure occurred.
The seizure response was assessed using the following scale, 0: no seizure, 1: wild running, 2: clonic seizure, 3: tonic seizure and 4: respiratory arrest. The maximum response was recorded as the seizure severity score.
The seizure suppression rate for each compound administration group was calculated according to the following formula.
Here, a rate of seizure suppression of 90% or more was expressed as “A”, a rate of seizure suppression of 70% or more and less than 90% was expressed as “B”, and a rate of seizure suppression of 50% or more and less than 70% was expressed as “C”.

[1] = DBA/2 mice, oral, dose 30 mg/kg, auditory stimulation 1 hour after administration
[2] = DBA/2 mice, oral, auditory stimulation 1 hour after administration

Compound	inhibition in vivo at 30 mg/kg [1]	also measured
Fc1ccccc1Oc1ncc(-c2ccc3ccnn3c2)cn1 [Example 152]	> 90%	
Cc1c(-c2cnc(Oc3cccc(F)c3)nc2)ccc2nccn12 [Example 200]	> 90%	
Fc1ccccc1Oc1ncc(-c2ccc3nccn3n2)cn1 [Example 124]	> 90%	
O=C1CCN(c2ccc(Oc3cccc(F)c3)c3ccccc23)C(=O)N1 [Example 345]	50 to 70%	
Cc1c(-c2cnc(Oc3ccccc3F)nc2)ccc2nccn12 [Example 199]	> 90%	
O=C1CCOCCN1c1cnc(Oc2ccc(F)cc2)nc1 [Example 234]	> 90%	
COc1ccc(-c2cnc(Oc3cccc(C#N)c3)nc2)nn1 [Example 73]	> 90%	
Nc1nc2ccc(-c3cnc(Oc4ccccc4)nc3)cc2s1 [Example 240, 6-(2-Phenoxypyrimidin-5-Yl)Benzo[d]Thiazol-2-Amine]	> 90%	
Fc1ccccc1Oc1ncc(-c2ccc3cnnn3c2)cn1 [Example 174]	> 90%	
Nc1ccc(-c2cnc(Oc3cc(F)ccc3F)nc2)cn1 [Example 84, 5-(2-(2,5-Difluorophenoxy)Pyrimidin-5-Yl)Pyridin-2-Amine]	> 90%	
Cc1ccc(-c2cnc(Oc3ccccc3)nc2)c(C)n1 [Example 70]	> 90%	
COc1cc(-c2cnc(Oc3ccccc3)nc2)ccn1 [Example 23]	> 90%	
O=C1CCOCCN1c1cnc(Oc2cccc(F)c2)nc1 [Example 233]	> 90%	
Cc1ncccc1-c1cnc(Oc2cccc(OC(F)(F)F)c2)nc1 [Example 77]	> 90%	
Cc1ncccc1-c1cnc(Oc2cc(F)cc(F)c2)nc1 [Example 56]		inhibition in vivo at 30 mg/kg (po, 1 h): > 90%
Fc1ccccc1Oc1ncc(-c2ccc3nnc(C(F)(F)F)n3c2)cn1 [Example 280]	> 90%	
O=c1ccc(-c2cnc(Oc3cccc(F)c3F)nc2)n[nH]1 [Example 110]	> 90%	
Nc1cc(-c2cnc(Oc3ccccc3F)nc2)ccn1 [Example 80]	> 90%	
Cc1cnc2ccc(-c3cnc(Oc4ccccc4F)nc3)cn12 [Example 191]	> 90%	
Fc1ccccc1Oc1ncc(-c2cn3ccnc3cn2)cn1 [Example 149]	> 90%	
COCc1cn2cc(-c3cnc(Oc4cccc(F)c4)nc3)ccc2n1 [Example 210]	> 90%	

Compound	inhibition in vivo at 30 mg/kg [1]	also measured
O=C1CCN(c2ccc(-c3ccccc3)cc2)C(=O)N1 [Example 327, 1-((1,1′-Biphenyl)-4-Yl)Dihydropyrimidine-2,4 (1H,3H)-Dione]	50 to 70%	
Fc1ccc(Oc2ncc(-c3ccn4cnnc4c3)cn2)cc1 [Example 213]	> 90%	
Cn1ncc2ccc(-c3cnc(Oc4cccc(F)c4)nc3)nc21 [Example 277]	> 90%	
Fc1cccc(Oc2ncc(-c3ccn4nccc4c3)cn2)c1 [Example 196]	> 90%	
Fc1ccc(Oc2ncc(-c3ccc4cncn4c3)cn2)cc1 [Example 158]	> 90%	
Cc1ncccc1-c1cnc(Oc2cccc(C(F)(F)F)c2)nc1 [Example 76]	> 90%	
Cc1nc2ccc(-c3cnc(Oc4ccc(F)cc4)nc3)cn2c1C [Example 203]	> 90%	
Fc1cc(F)cc(Oc2ncc(-c3ccc4nccn4c3)cn2)c1 [Example 169]		inhibition in vivo at 5 mg/kg [2]: > 90%
Fc1ccccc1Oc1ncc(-c2ccn3nccc3c2)cn1 [Example 195]	> 90%	
Fc1ccc(Oc2ncc(-c3ccn4ccnc4c3)cn2)cc1 [Example 132]	> 90%	
Nc1cc(-c2cnc(Oc3cccc(F)c3)nc2)ccn1 [Example 78]	> 90%	
O=C1CCN(c2ccc(Cc3ccc(C(F)(F)F)cc3)cc2)C(=O)N1 [Example 342]	50 to 70%	
O=C1CCN(c2ccc(Cc3cccc(C(F)(F)F)c3)cc2)C(=O)N1 [Example 341]	50 to 70%	
NC1=NC2C=CC(c3cnc(Oc4ccccc4)nc3)=CC2=N1 (centres unmarked) [Example 147]	> 90%	
Cn1ncc2ccc(-c3cnc(Oc4ccc(F)cc4)nc3)nc21 [Example 278]	> 90%	
Cn1ncc2ccc(-c3cnc(Oc4ccccc4F)nc3)nc21 [Example 276]	> 90%	
Nc1cc(-c2cnc(Oc3cccc(OC(F)(F)F)c3)nc2)ccn1 [Example 83]	> 90%	
Nc1ccc(-c2cnc(Oc3cccc(F)c3F)nc2)cn1 [Example 87]	> 90%	
Fc1ccc(F)c(Oc2ncc(-c3ccc4nccn4c3)cn2)c1 [Example 166]		inhibition in vivo at 5 mg/kg [2]: > 90%
O=c1ccn(-c2ccc(Oc3ccccc3)nn2)c(=O)[nH]1 [Example 346, 1-(6-Phenoxypyridazin-3-Yl)Pyrimidine-2,4 (1H,3H)-Dione]	50 to 70%	
c1ccc(Oc2ncc(-c3cccc4ccncc34)cn2)cc1 [Example 249]	> 90%	

Compound	inhibition in vivo at 30 mg/kg [1]	also measured
Fc1ccc(Oc2ncc(-c3ccn4nccc4c3)cn2)cc1 [Example 197]	> 90%	
Cc1ccc(-c2cnc(Oc3cccc(F)c3)nc2)nn1 [Example 21]	> 90%	
c1ccc(Oc2ncc(-c3cnc4nccn4c3)cn2)cc1 [Example 128]	> 90%	
Fc1ccc(Oc2ncc(-c3ccc4ccnn4c3)cn2)cc1 [Example 154]	> 90%	
c1ccc(Oc2ncc(-c3ccc4nccnc4c3)cn2)cc1 [Example 253]	> 90%	
Fc1cccc(Oc2ncc(-c3ccc4cnc(C(F)(F)F)n4c3)cn2)c1 [Example 287]	> 90%	
Fc1cccc(Oc2ncc(-c3ccc4cnnn4c3)cn2)c1 [Example 175]	> 90%	
c1ccc(Oc2ncc(-c3ccn4ncnc4c3)cn2)cc1 [Example 135]	> 90%	
O=C1Cc2cc(-c3cnc(Oc4ccc(F)cc4)nc3)ccc2N1 [Example 266]	> 90%	
OC1CCN(c2cnc(Oc3cccc(F)c3)nc2)CC1 [Example 227]	> 90%	
Clc1ccc(-c2cnc(Oc3ccccc3)nc2)cn1 [Example 51]	> 90%	
Cc1ccc(-c2cnc(Oc3cccc(C(F)(F)F)c3)nc2)cn1 [Example 15]	> 90%	
Fc1cccc(Oc2ncc(-c3ccnnc3)cn2)c1 [Example 32]	> 90%	
Cc1nc2cc(-c3cnc(Oc4ccccc4)nc3)ccc2s1 [Example 238]	> 90%	
Fc1ccc(Oc2ncc(-c3ccn4nncc4c3)cn2)cc1 [Example 187]	> 90%	
Fc1cccc(Oc2ncc(-c3ccc4ncnn4c3)cn2)c1 [Example 145]	> 90%	
O=C1CCC(c2cnc(Oc3ccccc3F)nc2)=NN1 [Example 96]	> 90%	
O=C1CCc2cc(-c3cnc(Oc4ccccc4F)nc3)ccc2N1 [Example 270]	> 90%	
c1ccc(Oc2ncc(-c3ccc4ncncc4c3)cn2)cc1 [Example 255]	> 90%	
OCc1ccc(-c2cnc(Oc3ccccc3)nc2)nn1 [Example 72, (6-(2-Phenoxypyrimidin-5-Yl)Pyridazin-3-Yl) Methanol]	> 90%	
